We go through 14 molecules from PubChem BioAssay AID248 (DTP/NCI, 2004).

Several values for one entry are separate records, joined by “and”; a condition that tells them apart may be missing. Identical values can stand only once. Inconclusive results and toxic doses are left out.

In the test the test system is L1210 leukemia ip in BDF1 mice, survival T/C. Briefly: NCI In Vivo Anticancer Drug Screen. Data for tumor model L1210 Leukemia (intraperitoneal) in B6D2F1 (BDF1) mice. The settings on record: endpoint: mean survival time, higher = longer survival. A digest of the protocol:
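In this screen, tumor-bearing mice given compound are compared to those given vehicle, and their survival values are reported as a treated-to-control quotient.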

The mark [1] stands for this setting: dose: 100.0 mg/kg/injection, schedule: Q01DX009 (ip), vehicle: saline.
The mark [2] stands for this setting: dose: 100.0 mg/kg/injection, schedule: Q04DX003 (ip), vehicle: saline.
Setting [3] is: dose: 200.0 mg/kg/injection, schedule: Q04DX003 (ip), vehicle: saline.
Where [4] appears, read: dose: 400.0 mg/kg/injection, schedule: Q04DX003 (ip), vehicle: saline.

For the molecule `CCC(C)C1NC(=O)C(NC(=O)c2c3nc4c(C(=O)NC5C(=O)NC(C(C)CC)C(=O)N6CCCC6C(=O)N(C)CC(=O)N(C)C(C(C)C)C(=O)OC5C)cc(N)c(C)c4oc-3c(C)c(=O)c2N)C(C)OC(=O)C(C(C)C)N(C)C(=O)CN(C)C(=O)C2CCCN2C1=O` (stereo unspecified), the T/C is, setting by setting: (dose: 75.0 micrograms/kg/injection, schedule: Q01DX009 (ip), vehicle: saline + alcohol) 119 % of control; (dose: 100.0 micrograms/kg/injection, schedule: Q01DX009 (ip), vehicle: saline + alcohol) 121 % of control; (dose: 150.0 micrograms/kg/injection, schedule: Q01DX009 (ip), vehicle: saline + alcohol) 124 % of control; (dose: 300.0 micrograms/kg/injection, schedule: Q01DX009 (ip), vehicle: saline + alcohol) 105 % of control; (dose: 300.0 micrograms/kg/injection, schedule: Q04DX003 (ip), vehicle: saline + alcohol) 122 % of control; (dose: 400.0 micrograms/kg/injection, schedule: Q01DX009 (ip), vehicle: saline + alcohol) 86 % of control.
Take `CCCCOC(=O)Nc1ccc(N)c(NC(=O)OCCCC)n1`: the T/C (dose: 100.0 mg/kg/injection, schedule: Q01DX009 (ip), vehicle: gum acacia) was 88 % of control; the T/C (dose: 100.0 mg/kg/injection, schedule: Q04DX003 (ip), vehicle: gum acacia) is 99 % of control; the T/C (dose: 200.0 mg/kg/injection, schedule: Q01DX009 (ip), vehicle: gum acacia) was 93 % of control; the T/C (dose: 200.0 mg/kg/injection, schedule: Q04DX003 (ip), vehicle: gum acacia) is 99 % of control; the T/C (dose: 400.0 mg/kg/injection, schedule: Q01DX009 (ip), vehicle: gum acacia) was 91 % of control; the T/C (dose: 400.0 mg/kg/injection, schedule: Q04DX003 (ip), vehicle: gum acacia) is 97 % of control.
Regarding `O=C1Cc2cccc(=O)c(O)c2C(=O)O1`, the T/C by setting is: (dose: 25.0 mg/kg/injection, schedule: Q01DX009 (ip), vehicle: saline) 97 % of control and 90 % of control; (dose: 50.0 mg/kg/injection, schedule: Q01DX009 (ip), vehicle: saline) 97 % of control and 92 % of control; under setting [1], 96 % of control and 89 % of control; under setting [2], 111 % of control and 100 % of control; under setting [3], 97 % of control; under setting [4], 89 % of control.
With `Cc1csc2c1c(N)nc(=O)n2C1OC(CO)C(O)C1O` (stereo unspecified), the T/C (dose: 100.0 mg/kg/injection, schedule: Q01DX005 (ip), vehicle: saline) is 112 % of control and the T/C (dose: 200.0 mg/kg/injection, schedule: Q01DX005 (ip), vehicle: saline) is 102 % of control.
Turning to `O=C([O][Sb]([O]C(=O)C(F)(F)F)([c]1ccccc1)([c]1ccccc1)[c]1ccccc1)C(F)(F)F`, the T/C is, setting by setting: (dose: 100.0 mg/kg/injection, schedule: Q01DX001 (ip), vehicle: saline with Tween-80) 99 % of control; (dose: 200.0 mg/kg/injection, schedule: Q01DX001 (ip), vehicle: saline with Tween-80) 92 % of control.
As for `Nc1ccc(N)cc1`, the T/C by setting is: (dose: 1.5 mg/kg/injection, schedule: Q01DX009 (ip), vehicle: DMSO) 94 % of control; (dose: 3.0 mg/kg/injection, schedule: Q01DX009 (ip), vehicle: DMSO) 92 % of control; (dose: 5.0 mg/kg/injection, schedule: Q01DX001 (ip), vehicle: saline) 98 % of control; (dose: 5.0 mg/kg/injection, schedule: Q01DX009 (ip), vehicle: saline with Tween-80) 100 % of control; (dose: 5.0 mg/kg/injection, schedule: Q04DX003 (ip), vehicle: saline) 103 % of control; (dose: 6.0 mg/kg/injection, schedule: Q01DX009 (ip), vehicle: DMSO) 92 % of control. Besides, the T/C (dose: 6.25 mg/kg/injection, schedule: Q01DX009 (ip), vehicle: DMSO) was 94 % of control; the T/C (dose: 10.0 mg/kg/injection, schedule: Q01DX001 (ip), vehicle: saline) is 102 % of control; the T/C (dose: 10.0 mg/kg/injection, schedule: Q01DX009 (ip), vehicle: saline with Tween-80) is 96 % of control; the T/C (dose: 10.0 mg/kg/injection, schedule: Q04DX003 (ip), vehicle: saline) is 98 % of control; the T/C (dose: 12.5 mg/kg/injection, schedule: Q01DX009 (ip), vehicle: DMSO) was 89 % of control; the T/C (dose: 20.0 mg/kg/injection, schedule: Q01DX001 (ip), vehicle: saline) was 106 % of control. Moreover, the T/C runs as follows: (dose: 20.0 mg/kg/injection, schedule: Q01DX009 (ip), vehicle: saline with Tween-80) 99 % of control; (dose: 20.0 mg/kg/injection, schedule: Q04DX003 (ip), vehicle: saline) 97 % of control; (dose: 40.0 mg/kg/injection, schedule: Q01DX001 (ip), vehicle: saline) 106 % of control; (dose: 100.0 mg/kg/injection, schedule: Q04DX003 (ip), vehicle: DMSO) 91 % of control; (dose: 200.0 mg/kg/injection, schedule: Q04DX003 (ip), vehicle: DMSO) 88 % of control.
Consider `N#Cc1ccc(OC(=O)c2ccc(N=C(N)N)cc2)cc1`, for which the T/C was 94 % of control under setting [1]; 96 % of control under setting [2]; 91 % of control (dose: 200.0 mg/kg/injection, schedule: Q01DX009 (ip), vehicle: saline); 93 % of control under setting [3]; 88 % of control under setting [4].
Regarding `c1ccc(N=N/C(=N/Nc2ccccc2)c2ccccc2)cc1`, the T/C by setting is: (dose: 50.0 mg/kg/injection, schedule: Q01DX009 (ip), vehicle: saline with Tween-80) 90 % of control; (dose: 100.0 mg/kg/injection, schedule: Q01DX009 (ip), vehicle: saline with Tween-80) 96 % of control.
Take `CCCCCCCCCCCCCCCOc1ccc2ccccc2c1`: the T/C (dose: 100.0 mg/kg/injection, schedule: Q01DX001 (ip), vehicle: Klucel (hydroxypropylcellulose) (HPC)) is 326 % of control; the T/C (dose: 200.0 mg/kg/injection, schedule: Q01DX001 (ip), vehicle: Klucel (hydroxypropylcellulose) (HPC)) is 326 % of control; the T/C (dose: 400.0 mg/kg/injection, schedule: Q01DX001 (ip), vehicle: Klucel (hydroxypropylcellulose) (HPC)) was 326 % of control.
`CC(C)CC[n+]1ccc(C(N)=O)cc1`: the T/C (dose: 100.0 mg/kg/injection, schedule: Q01DX001 (ip), vehicle: saline) is 97 % of control; the T/C under setting [2] is 98 % of control; the T/C (dose: 200.0 mg/kg/injection, schedule: Q01DX001 (ip), vehicle: saline) is 100 % of control; the T/C under setting [3] was 97 % of control; the T/C (dose: 400.0 mg/kg/injection, schedule: Q01DX001 (ip), vehicle: saline) is 95 % of control; the T/C under setting [4] is 104 % of control.
For `C=C1C(C(=O)OCC)C1C(=O)OCC` (stereo unspecified), the T/C is, setting by setting: (dose: 50.0 mg/kg/injection, schedule: Q04DX002 (ip), vehicle: saline with Tween-80) 98 % of control; (dose: 100.0 mg/kg/injection, schedule: Q04DX002 (ip), vehicle: saline with Tween-80) 103 % of control; (dose: 200.0 mg/kg/injection, schedule: Q04DX002 (ip), vehicle: saline with Tween-80) 106 % of control; (dose: 400.0 mg/kg/injection, schedule: Q04DX002 (ip), vehicle: saline with Tween-80) 98 % of control.
In the case of `CCC[CH2][Pb]([CH2]CCC)([CH2]CCC)[O]C(=O)CCl`, the T/C is, setting by setting: (dose: 1.56 mg/kg/injection, schedule: Q01DX009 (ip), vehicle: Klucel (hydroxypropylcellulose) (HPC)) 98 % of control; (dose: 3.13 mg/kg/injection, schedule: Q01DX009 (ip), vehicle: Klucel (hydroxypropylcellulose) (HPC)) 104 % of control; (dose: 6.25 mg/kg/injection, schedule: Q01DX009 (ip), vehicle: Klucel (hydroxypropylcellulose) (HPC)) 94 % of control and 98 % of control; (dose: 12.5 mg/kg/injection, schedule: Q04DX003 (ip), vehicle: Klucel (hydroxypropylcellulose) (HPC)) 101 % of control; (dose: 25.0 mg/kg/injection, schedule: Q04DX003 (ip), vehicle: Klucel (hydroxypropylcellulose) (HPC)) 100 % of control.
For the molecule `O=C(Nc1ccc(C2=NCCN2)cc1)c1ccc(-c2ccc(C(=O)Nc3ccc(C4=NCCN4)cc3)cc2)cc1`, the T/C is, setting by setting: (dose: 111.0 mg/kg/injection, schedule: Q01DX Z (ip), vehicle: carboxymethylcellulose (CMC)) 105 % of control; (dose: 166.0 mg/kg/injection, schedule: Q01DX Z (ip), vehicle: carboxymethylcellulose (CMC)) 101 % of control; (dose: 250.0 mg/kg/injection, schedule: Q01DX Z (ip), vehicle: carboxymethylcellulose (CMC)) 106 % of control; (dose: 375.0 mg/kg/injection, schedule: Q01DX Z (ip), vehicle: carboxymethylcellulose (CMC)) 109 % of control.
Consider `C1CCC2OC3(CC2C1)OC1CCCCC1O3` (stereo unspecified), for which the T/C (dose: 75.0 mg/kg/injection, schedule: Q04DX002 (ip), vehicle: saline + alcohol) was 101 % of control; the T/C (dose: 150.0 mg/kg/injection, schedule: Q04DX002 (ip), vehicle: saline + alcohol) is 116 % of control; the T/C (dose: 300.0 mg/kg/injection, schedule: Q04DX002 (ip), vehicle: saline + alcohol) is 105 % of control.
